Data reported in publication PMC8400120, “Synthesis of Novel Methyl 7-[(Hetero)arylamino]thieno[2,3-b]pyrazine-6-carboxylates and Antitumor Activity Evaluation: Effects in Human Tumor Cells Growth, Cell Cycle Analysis, Apoptosis and Toxicity in Non-Tumor Cells” (Molecules, 2021).
Entries after “also recorded” stand apart in the source; their conditions may differ.

Key:
breast carcinoma (MCF7) = assay: SRB cell growth inhibition assay, MCF7; assay type: cell-based, human; conditions: MCF-7, SRB assay, 48 h incubation, mean ± SD
Experimental: (§1) The antitumor potential of the di(hetero)arylamines 2a–2o was evaluated using the sulforhodamine B (SRB) assay to establish some structure–activity relationships. Four human tumor cell lines (acquired from Leibniz-Institut DSMZ) were used: gastric adenocarcinoma (AGS), colorectal adenocarcinoma (CaCo-2), breast adenocarcinoma (MCF7), and non-small-cell lung cancer (NCI-H460), as well as a non-tumor cell line from African green monkey kidney (Vero) to evaluate the toxicity of the compounds. Ellipticine was used as a positive control, and the results are presented in GI50 values (µM) (Table 2).
(§2) Each cell line was prepared in 96-well plates, at the required density (1.0 × 10^4 cells/well) and incubated for 24 h to achieve cell attachment. The solutions of the compounds were applied and incubated for another 48 h. GI50 values (µM) corresponding to the compound concentration that inhibited 50% of cell growth were determined using the sulforhodamine B assay. Two separate tests were carried out for each compound, in duplicate, with the effects expressed as mean values and standard deviation (SD). Ellipticine was used as a positive control.

[1] = tested on: non-small-cell lung carcinoma (NCI-H460); assay: SRB cell growth inhibition assay, NCI-H460; assay type: cell-based, human; conditions: 48 h incubation, mean ± SD
Experimental: as §1, §2

[2] = tested on: colorectal adenocarcinoma (CaCo-2); assay: SRB cell growth inhibition assay, CaCo-2; assay type: cell-based, human; conditions: for GI50: CaCo-2, SRB assay, 48 h incubation, mean ± SD
Experimental: as §1, §2

[3] = tested on: gastric adenocarcinoma (AGS); assay: SRB cell growth inhibition assay, AGS; assay type: cell-based, human; conditions: for GI50: AGS, SRB assay, 48 h incubation, mean ± SD; for Selectivity for AGS among the cell lines used: comparison of GI50 values
Experimental: as §1, §2

[4] = SRB cell growth inhibition assay, non-tumor Vero cells (toxicity); assay type: cell-based; conditions: African green monkey, Vero cells (non-tumor kidney cell line), 48 h incubation, mean ± SD
Experimental: as §1, §2

AGS cells [5] = assay: Flow cytometric apoptosis detection (FITC Annexin V/PI); assay type: cell-based, human; conditions: at GI50 concentration, 72 h; for Cell death in apoptosis assay: vs blank
Experimental: Apoptosis induction was performed using the Fluorescein Isothiocyanate (FITC) Annexin V Apoptosis Kit (BD Biosciences, San Jose, CA, USA), and measured by flow cytometry for compounds 2b, 2f, and 2g (Figure 3). FITC Annexin V staining was used to determine the percentage of cells within a population that are actively undergoing apoptosis. […] Apoptosis detection was performed using the Fluorescein Isothiocyanate (FITC) Annexin V Apoptosis Kit (BD Biosciences, San Jose, CA, USA) and flow cytometry. FITC Annexin V staining is used to determine the percentage of cells within a population that are actively undergoing apoptosis. The cells were washed twice with PBS and resuspended cells in 1× Binding Buffer (10 mM HEPES/NaOH, pH 7.4, 140 mM NaCl, 2.5 mM CaCl2) at a concentration of 1 × 10^6 cells/mL. Following this, 100 μL of the solution (1 × 10^5 cells) was transferred to a 5 mL culture tube and 5 μL of FITC Annexin V (BD Biosciences, San Jose, CA, USA) and 5 μL of PI (BD Biosciences, San Jose, CA, USA) were added to each tube, and they were incubated in the dark, at room temperature, for 15 min. Finally, 400 μL of 1× Binding Buffer was added to each tube. Next, 30,000 cells were acquired using an Accuri C6 flow cytometer (BD Biosciences, San Jose, CA, USA), and the percentage of cell distribution was evaluated with Accuri C6 software (BD Biosciences, San Jose, CA, USA). Ellipticine was used as a positive control at its GI50 concentration for AGS cell line.

AGS cells [6] = assay: Flow cytometric cell cycle analysis (PI staining); assay type: cell-based, human; conditions: at GI50 concentration, 72 h, vs blank
Experimental: This assay is based on the measurement of the DNA content in the PI-labeled nuclei. […] Cell cycle analysis was performed using propidium iodide (PI) staining and flow cytometry. This assay is established on the measurement of the DNA content of nuclei labeled with PI. Following this, the cells were staining according to the protocol PI/RNASE Solution (Immunostep, Spain, Salamanca). The harvested cells corresponding to 2 × 10^5 to 1 × 10^6 cells, were centrifuged for 5 min at 300g, and the supernatant was removed. The cells were fixed and added to 200 µL of 70% ethanol and left in the ethanol at 4 °C for 30 min. Following this, the cells were washed once in 2 mL phosphate-buffered saline (PBS) and centrifuged for 5 min at 300g and resuspended in 500 μL of PI solution (PI/RNASE) and incubated in the dark, at room temperature, for 15 min. Cell cycle phase distribution was evaluated using an Accuri C6 flow cytometer (BD Biosciences, San Jose, CA, USA). The DNA content of at least 20,000 cells was counted per sample, and the percentage of cells in different phases (G0/G1, S, and G2/M phases) of the cell cycle was evaluated using BD Accuri C6 software (BD Biosciences, San Jose, CA, USA). Ellipticine was used as a positive control at its GI50 concentration for AGS cell line.

| GI50 (breast carcinoma (MCF7); Homo sapiens, MCF7, 48 h) [µM] | GI50 ([1]; Homo sapiens, NCI-H460, 48 h) [µM] | melting point [°C] | GI50 ([2]; Homo sapiens, Caco-2, 48 h) [µM] | GI50 ([3]; Homo sapiens, 48 h) [µM] | SMILES | GI50 at 48 h [4] [µM] | further results |
| --- | --- | --- | --- | --- | --- | --- | --- |
| 105.7 ± 0.5 | 77 ± 6 | – | 9.2 ± 0.3 | 33 ± 3 | COC(=O)c1sc2nccnc2c1Nc1cc(OC)c(OC)c(OC)c1 [2h, Methyl 7-[(3,4,5-Trimethoxyphenyl)amino]thieno[2,3-b]pyrazine-6-carboxylate] | 53 ± 5 | – |
| 128 ± 5 | 76 ± 1 | – | 88.4 ± 0.2 | 48 ± 4 | COC(=O)c1sc2nccnc2c1Nc1ccccc1F [2i, Methyl 7-[(2-Fluorophenyl)amino]thieno[2,3-b]pyrazine-6-carboxylate] | 117 ± 10 | – |
| 96 ± 6 | 69 ± 7 | – | 142 ± 11 | 86 ± 6 | COC(=O)c1sc2nccnc2c1Nc1cccc(F)c1 [2j, Methyl 7-[(3-Fluorophenyl)amino]thieno[2,3-b]pyrazine-6-carboxylate] | 149 ± 4 | – |
| 160 ± 7 | 84 ± 2 | 171 to 173 | 62 ± 4 | 118 ± 2 | COC(=O)c1sc2nccnc2c1Nc1ccc(F)cc1 [2k, Methyl 7-[(4-Fluorophenyl)amino]thieno[2,3-b]pyrazine-6-carboxylate] | 149 ± 7 | – |
| 116 ± 5 | 122 ± 11 | 150 to 152 | 45 ± 3 | 63.3 ± 0.1 | COC(=O)c1sc2nccnc2c1Nc1cccnc1 [2l, Methyl 7-[(Pyridin-3-yl)amino]thieno[2,3-b]pyrazine-6-carboxylate] | 110 ± 5 | – |
| 128 ± 2 | 49 ± 2 | 166 to 168 | 43.3 ± 0.3 | 88.6 ± 0.1 | COC(=O)c1sc2nccnc2c1-n1cccc1 [2m, Methyl 7-(1H-pyrrol-1-yl)thieno[2,3-b]pyrazine-6-carboxylate] | 140 ± 12 | – |
| 103 ± 2 | 105 ± 8 | 214 to 216 | 10.9 ± 0.4 | 39 ± 3 | COC(=O)c1sc2nccnc2c1Nc1ccc(C#N)cc1 [2n, Methyl 7-[(4-Cyanophenyl)amino]thieno[2,3-b]pyrazine-6-carboxylate] | 48 ± 4 | Selectivity for CaCo-2 among the cell lines used ([2]; comparison of GI50 values): selective for this cell line; also recorded: selective against CaCo-2 cell line |
| 103 ± 3 | 43 ± 2 | 225 to 227 | 31.2 ± 0.2 | 55 ± 0.3 | COC(=O)c1sc2nccnc2c1Nc1ccccc1[N+](=O)[O-] [2o, Methyl 7-[(2-Nitrophenyl)amino]thieno[2,3-b]pyrazine-6-carboxylate] | 92 ± 8 | – |

The remaining lines, values behind:

| SMILES | GI50 (breast carcinoma (MCF7); Homo sapiens, MCF7, 48 h) [µM] | GI50 ([1]; Homo sapiens, NCI-H460, 48 h) [µM] | melting point [°C] | GI50 ([2]; Homo sapiens, Caco-2, 48 h) [µM] | GI50 ([3]; Homo sapiens, 48 h) [µM] | GI50 at 48 h [4] [µM] | further results |
| --- | --- | --- | --- | --- | --- | --- | --- |
| COC(=O)c1sc2nccnc2c1Nc1ccccc1 [2a, Methyl 7-(Phenylamino)thieno[2,3-b]pyrazine-6-carboxylate] | 97 ± 2 | 122 ± 9 | 154 to 156 | 38 ± 2 | 95 ± 9 | 120 ± 6 | – |
| COC(=O)c1sc2nccnc2c1Nc1ccccc1OC [2b, Methyl 7-[(2-Methoxyphenyl)amino]thieno[2,3-b]pyrazine-6-carboxylate] | 127 ± 9 | 45 ± 1 | – | 36 ± 2 | 9.8 ± 0.2 | 21.29 ± 0.03 | High number of cells in apoptosis (expected from GI50 values) (AGS cells [5]): not verified; Cell death in apoptosis assay (AGS cells [5]): moderated cell death compared to the blank; Selectivity for AGS among the cell lines used [3]: selective for this cell line; Effect on G0/G1 phases of AGS cell cycle (AGS cells [6]): cell cycle arrest in G0/G1 phases, although this result was not statistically significant; Effect on G2/M phase of AGS cell cycle (AGS cells [6]): did not present any difference in the percentage of cells compared to the blank |
| COC(=O)c1sc2nccnc2c1Nc1cccc(OC)c1 [2c, Methyl 7-[(3-Methoxyphenyl)amino]thieno[2,3-b]pyrazine-6-carboxylate] | 160 ± 6 | 96 ± 1 | 171 to 173 | 56 ± 1 | 98 ± 3 | 94 ± 3 | – |
| COC(=O)c1sc2nccnc2c1Nc1ccc(OC)cc1 [2d, Methyl 7-[(4-Methoxyphenyl)amino]thieno[2,3-b]pyrazine-6-carboxylate] | 136 ± 3 | 52.8 ± 0.3 | – | 60 ± 2 | 59 ± 3 | 127 ± 3 | – |
| COC(=O)c1sc2nccnc2c1Nc1ccc(OC)cc1OC [2e, Methyl 7-[(2,4-Dimethoxyphenyl)amino]thieno[2,3-b]pyrazine-6-carboxylate] | 140 ± 7 | 200 ± 3 | 159 to 161 | 56 ± 2 | 34 ± 2 | 138 ± 8 | – |
| COC(=O)c1sc2nccnc2c1Nc1ccc(OC)c(OC)c1 [2f, Methyl 7-[(3,4-Dimethoxyphenyl)amino]thieno[2,3-b]pyrazine-6-carboxylate] | 87 ± 1 | 41 ± 3 | – | < 10 | < 10 | 53 ± 3 | High number of cells in apoptosis (expected from GI50 values) (AGS cells [5]): not verified; Cell death in apoptosis assay (AGS cells [5]): moderated cell death compared to the blank; GI50 [2]: 8 ± 1 µM; GI50 [3]: 9.2 ± 0.2 µM; Effect on G0/G1 phases of AGS cell cycle (AGS cells [6]): cell cycle arrest in G0/G1 phases, although this result was not statistically significant; Effect on G2/M phase of AGS cell cycle (AGS cells [6]): did not present any difference in the percentage of cells compared to the blank |
| COC(=O)c1sc2nccnc2c1Nc1cc(OC)cc(OC)c1 [2g, Methyl 7-[(3,5-Dimethoxyphenyl)amino]thieno[2,3-b]pyrazine-6-carboxylate] | 182 ± 5 | 120 ± 10 | – | 38 ± 4 | 7.8 ± 0.2 | 144 ± 10 | High number of cells in apoptosis (expected from GI50 values) (AGS cells [5]): not verified; Apoptotic cells (AGS cells [5]; Figure 4): 19,6%; Dead cells (AGS cells [5]; Figure 4): 60,4%; Live Cells (AGS cells [5]; Figure 4): 19,0%; Cell death in apoptosis assay (AGS cells [5]): large amount of cell death; Selectivity for AGS among the cell lines used [3]: selective for this cell line; AGS cell cycle profile histogram (AGS cells [6]): high percentage of cell death and an atypical distribution on cell cycle profile |
| Cc1c2ccncc2c(C)c2c1[nH]c1ccccc12 [Ellipticine, reference compound] | ≤ 1 | ≤ 1 | – | ≤ 1 | ≤ 1 | 0.6 ± 0.1 | GI50 (breast carcinoma (MCF7)): 1.02 ± 0.004 µM; GI50 [1]: 1.01 ± 0.01 µM; GI50 [2]: 0.8 ± 0.1 µM; GI50 [3]: 0.9 ± 0.1 µM |
